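48-hour exposure; five concentrations; linearly interpolated endpoints. The concentration for full growth arrest is given as TGI.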
Experiments:
Test in all cases: inhibition of tumour cell growth, NCI panel, 48 h
SK-MEL-28 melanoma = system: SK-MEL-28 melanoma
NCI-H226 lung = system: NCI-H226 lung
MOLT-4 leukemia = system: MOLT-4 leukemia
OVCAR-8 ovarian = system: OVCAR-8 ovarian
NCI-H522 lung = system: NCI-H522 lung
UACC-257 melanoma = system: UACC-257 melanoma
HCC-2998 colon = system: HCC-2998 colon
PC-3 prostate = system: PC-3 prostate
HCT-116 colon = system: HCT-116 colon
OVCAR-5 ovarian = system: OVCAR-5 ovarian

Work on COc1ccc2nc(-c3ccc(N)cc3)sc2c1 yielded a TGI (SK-MEL-28 melanoma) of over 100 µM, a TGI (NCI-H226 lung) of over 100 µM and a TGI (MOLT-4 leukemia) of over 100 µM. It also gave a TGI (OVCAR-8 ovarian) of over 100 µM, a TGI (NCI-H522 lung) of over 100 µM and a TGI (UACC-257 melanoma) of over 100 µM. For the same compound, the TGI (HCC-2998 colon) was over 100 µM, the TGI (PC-3 prostate) was over 100 µM and the TGI (HCT-116 colon) was over 100 µM. It also gave a TGI (OVCAR-5 ovarian) of over 100 µM.
Compound NC1CC(=O)c2c(I)sc(I)c21 (stereo not given) has a TGI (SK-MEL-28 melanoma) of 43.2 µM, a TGI (NCI-H226 lung) of 45.6 µM and a TGI (MOLT-4 leukemia) of 44.8 µM. It also gave a TGI (OVCAR-8 ovarian) of over 55.4 µM, a TGI (NCI-H522 lung) of 24.3 µM and a TGI (UACC-257 melanoma) of 39.9 µM. For the same compound, the TGI (HCC-2998 colon) was 44.2 µM, the TGI (PC-3 prostate) was 42.8 µM and the TGI (HCT-116 colon) was over 49.4 µM. The TGI (OVCAR-5 ovarian) was 53 µM.
With O=C1c2ccccc2CC12Cc1ccc3c(c1C2=O)CCCC3 (stereo not given) the TGI (SK-MEL-28 melanoma) was over 100 µM, the TGI (NCI-H226 lung) was over 100 µM and the TGI (MOLT-4 leukemia) was 12.5 µM. It also gave a TGI (OVCAR-8 ovarian) of over 100 µM, a TGI (NCI-H522 lung) of over 100 µM and a TGI (UACC-257 melanoma) of over 100 µM. It also gave a TGI (HCC-2998 colon) of over 100 µM, a TGI (PC-3 prostate) of over 100 µM and a TGI (HCT-116 colon) of over 100 µM. For the same compound, the TGI (OVCAR-5 ovarian) was over 100 µM.
CN1N=C(c2ccncc2)OC1c1ccc(C(F)(F)F)cc1 (stereo not given) gave a TGI (SK-MEL-28 melanoma) of over 100 µM, a TGI (NCI-H226 lung) of over 100 µM and a TGI (MOLT-4 leukemia) of over 100 µM. For the same compound, the TGI (OVCAR-8 ovarian) was over 100 µM, the TGI (NCI-H522 lung) was over 100 µM and the TGI (UACC-257 melanoma) was over 100 µM. The TGI (HCC-2998 colon) was over 100 µM, the TGI (PC-3 prostate) was over 100 µM and the TGI (HCT-116 colon) was over 100 µM. It also gave a TGI (OVCAR-5 ovarian) of over 100 µM.
O=C(NCC(O)COc1ccccc1)c1ccccc1O (stereo not given) showed a TGI (SK-MEL-28 melanoma) of over 100 µM, a TGI (NCI-H226 lung) of over 100 µM and a TGI (MOLT-4 leukemia) of 47.2 µM. The TGI (OVCAR-8 ovarian) was over 100 µM, the TGI (NCI-H522 lung) was over 100 µM and the TGI (UACC-257 melanoma) was over 100 µM. The TGI (HCC-2998 colon) was over 100 µM, the TGI (PC-3 prostate) was over 100 µM and the TGI (HCT-116 colon) was over 100 µM. For the same compound, the TGI (OVCAR-5 ovarian) was over 100 µM.
O=C(O)c1ccccc1Sc1ccc(C=C2NC(=S)N(c3ccccc3)C2=O)s1 was tested, and the TGI (SK-MEL-28 melanoma) was over 100 µM, the TGI (NCI-H226 lung) was over 100 µM and the TGI (MOLT-4 leukemia) was over 100 µM. It also gave a TGI (OVCAR-8 ovarian) of over 100 µM, a TGI (NCI-H522 lung) of 38.9 µM and a TGI (UACC-257 melanoma) of over 100 µM. The TGI (HCC-2998 colon) was over 100 µM, the TGI (PC-3 prostate) was over 100 µM and the TGI (HCT-116 colon) was over 100 µM. The TGI (OVCAR-5 ovarian) was over 100 µM.
Work on O=[N+]([O-])c1ccc(CSC2=C(c3ccc(Cl)cc3)S/C(=C3\SC(SCc4ccc([N+](=O)[O-])cc4)=C(c4ccc(Cl)cc4)S3)S2)cc1 yielded a TGI (SK-MEL-28 melanoma) of over 100 µM, a TGI (NCI-H226 lung) of over 100 µM and a TGI (MOLT-4 leukemia) of over 100 µM. For the same compound, the TGI (OVCAR-8 ovarian) was over 100 µM, the TGI (NCI-H522 lung) was over 100 µM and the TGI (UACC-257 melanoma) was over 100 µM. The TGI (HCC-2998 colon) was over 100 µM, the TGI (PC-3 prostate) was over 100 µM and the TGI (HCT-116 colon) was over 100 µM. It also gave a TGI (OVCAR-5 ovarian) of over 100 µM.
In the case of CCOC(=O)c1c(N2CCN(C)CC2)[nH]c(=O)c(C(c2c(Cl)cccc2Cl)c2c(O)c(C(=O)OCC)c(N3CCN(C)CC3)[nH]c2=O)c1O, the TGI (SK-MEL-28 melanoma) is reported as 34.1 µM, the TGI (NCI-H226 lung) is reported as 52.6 µM and the TGI (MOLT-4 leukemia) is reported as 62.2 µM. The TGI (OVCAR-8 ovarian) was 45 µM, the TGI (NCI-H522 lung) was 42 µM and the TGI (UACC-257 melanoma) was 38.9 µM. It also gave a TGI (HCC-2998 colon) of 78.1 µM, a TGI (PC-3 prostate) of 47.5 µM and a TGI (HCT-116 colon) of over 100 µM. The TGI (OVCAR-5 ovarian) was over 100 µM.
In the case of CC(C)=CC(=O)c1[nH]c2ccccc2c1CC(=O)NCCc1cnc[nH]1, the TGI (SK-MEL-28 melanoma) is reported as over 100 µM, the TGI (NCI-H226 lung) is reported as over 100 µM and the TGI (MOLT-4 leukemia) is reported as over 100 µM. The TGI (OVCAR-8 ovarian) was over 100 µM, the TGI (NCI-H522 lung) was over 100 µM and the TGI (UACC-257 melanoma) was over 100 µM. For the same compound, the TGI (HCC-2998 colon) was over 100 µM, the TGI (PC-3 prostate) was over 100 µM and the TGI (HCT-116 colon) was over 100 µM. It also gave a TGI (OVCAR-5 ovarian) of over 100 µM.
COc1ccc(/C=C(\C#N)c2ccccn2)cc1OC gave a TGI (SK-MEL-28 melanoma) of over 100 µM, a TGI (NCI-H226 lung) of 95.8 µM and a TGI (MOLT-4 leukemia) of over 100 µM. The TGI (OVCAR-8 ovarian) was over 100 µM, the TGI (NCI-H522 lung) was over 100 µM and the TGI (UACC-257 melanoma) was over 100 µM. For the same compound, the TGI (HCC-2998 colon) was over 100 µM, the TGI (PC-3 prostate) was 65.7 µM and the TGI (HCT-116 colon) was over 100 µM. For the same compound, the TGI (OVCAR-5 ovarian) was over 100 µM.
In the case of CCC(CCCC[C@H]1CC[C@@H]2CC(=O)C[C@H]12)OC (stereo not given in full), the TGI (SK-MEL-28 melanoma) is reported as over 100 µM, the TGI (NCI-H226 lung) is reported as over 100 µM and the TGI (MOLT-4 leukemia) is reported as over 100 µM. The TGI (OVCAR-8 ovarian) was over 100 µM, the TGI (NCI-H522 lung) was over 100 µM and the TGI (UACC-257 melanoma) was over 100 µM. It also gave a TGI (HCC-2998 colon) of over 100 µM, a TGI (PC-3 prostate) of over 100 µM and a TGI (HCT-116 colon) of over 100 µM. For the same compound, the TGI (OVCAR-5 ovarian) was over 100 µM.
In the case of Cc1c(CCCl)c(Cl)n2c(nc3ccccc32)c1C#N, the TGI (SK-MEL-28 melanoma) is reported as 4.97 µM, the TGI (NCI-H226 lung) is reported as 2.93 µM and the TGI (MOLT-4 leukemia) is reported as 0.653 µM. For the same compound, the TGI (OVCAR-8 ovarian) was 2.38 µM, the TGI (NCI-H522 lung) was 1.46 µM and the TGI (UACC-257 melanoma) was 3.07 µM. The TGI (HCC-2998 colon) was 2.94 µM, the TGI (PC-3 prostate) was 2.4 µM and the TGI (HCT-116 colon) was 0.891 µM. For the same compound, the TGI (OVCAR-5 ovarian) was 4.1 µM.
In the case of CN(CCNC(=O)c1nn(C)c2c1Cc1ccccc1-2)CCNC(=O)c1nn(C)c2c1Cc1ccccc1-2, the TGI (SK-MEL-28 melanoma) is reported as 30.9 µM, the TGI (NCI-H226 lung) is reported as 34.5 µM and the TGI (MOLT-4 leukemia) is reported as 31.2 µM. The TGI (OVCAR-8 ovarian) was 42.2 µM, the TGI (NCI-H522 lung) was 30 µM and the TGI (UACC-257 melanoma) was 27.5 µM. For the same compound, the TGI (HCC-2998 colon) was 25.5 µM, the TGI (PC-3 prostate) was 47.6 µM and the TGI (HCT-116 colon) was 28.9 µM. For the same compound, the TGI (OVCAR-5 ovarian) was 89 µM.
For CCCCCCCC(=O)NC(C)(C)C(=O)NCC(=O)NC(CC(C)C)C(=O)NC(C)(C)C(=O)NCC(=O)NCC(=O)NC(CC(C)C)C(=O)NC(C)(C)C(=O)NCC(=O)NC(C(=O)NC(CO)CC(C)C)C(C)CC (stereo not given), the TGI (SK-MEL-28 melanoma) was 7.32 µM, the TGI (NCI-H226 lung) was 8.48 µM and the TGI (MOLT-4 leukemia) was 9.43 µM. It also gave a TGI (OVCAR-8 ovarian) of 7.62 µM, a TGI (NCI-H522 lung) of 7.26 µM and a TGI (UACC-257 melanoma) of 7.96 µM. It also gave a TGI (HCC-2998 colon) of 7.71 µM, a TGI (PC-3 prostate) of 7.08 µM and a TGI (HCT-116 colon) of 7.09 µM. It also gave a TGI (OVCAR-5 ovarian) of 6.94 µM.
Work on COc1ccc(/C=N/n2c(-c3ccccc3)n[nH]c2=O)c(OC)c1 yielded a TGI (SK-MEL-28 melanoma) of over 100 µM, a TGI (NCI-H226 lung) of over 100 µM and a TGI (MOLT-4 leukemia) of over 100 µM. For the same compound, the TGI (OVCAR-8 ovarian) was over 87.6 µM, the TGI (NCI-H522 lung) was over 74.3 µM and the TGI (UACC-257 melanoma) was over 100 µM. It also gave a TGI (HCC-2998 colon) of over 100 µM, a TGI (PC-3 prostate) of over 100 µM and a TGI (HCT-116 colon) of over 100 µM. The TGI (OVCAR-5 ovarian) was over 100 µM.
In the case of c1ccc(-c2cc(-c3ccccc3)nc(-c3ccncc3)c2)cc1, the TGI (SK-MEL-28 melanoma) is reported as over 100 µM, the TGI (NCI-H226 lung) is reported as over 100 µM and the TGI (MOLT-4 leukemia) is reported as over 100 µM. It also gave a TGI (OVCAR-8 ovarian) of over 100 µM, a TGI (NCI-H522 lung) of over 100 µM and a TGI (UACC-257 melanoma) of over 100 µM. For the same compound, the TGI (HCC-2998 colon) was over 100 µM, the TGI (PC-3 prostate) was over 100 µM and the TGI (HCT-116 colon) was over 100 µM. For the same compound, the TGI (OVCAR-5 ovarian) was over 100 µM.
Work on O=C1OCOC2(CCCC2)C1c1ccccc1 (stereo not given) yielded a TGI (SK-MEL-28 melanoma) of over 100 µM, a TGI (NCI-H226 lung) of over 100 µM and a TGI (MOLT-4 leukemia) of over 100 µM. For the same compound, the TGI (OVCAR-8 ovarian) was over 100 µM, the TGI (NCI-H522 lung) was over 100 µM and the TGI (UACC-257 melanoma) was over 100 µM. It also gave a TGI (HCC-2998 colon) of over 100 µM, a TGI (PC-3 prostate) of over 100 µM and a TGI (HCT-116 colon) of over 100 µM. It also gave a TGI (OVCAR-5 ovarian) of over 100 µM.
